How the values were obtained:
[1] = biological target: T1, human (h) natriuretic peptide receptor A (hNPR-A) (Homo sapiens, UniProt P16066); assay: AlphaScreen assay for cGMP: BNP-mediated NPR-A activity (cGMP production); assay type: cell-based; details: conc. response of compound + 0.1 nM BNP; for EC50: NPR-A-expressing HEK293 cells, read-out: -LogEC50 (compound) (converted); for Emax: percentage of maximum BNP-mediated cGMP production, read-out: Max Response
T1 construct: expressed in transfected cells
T1 sequence (P16066 33-1061): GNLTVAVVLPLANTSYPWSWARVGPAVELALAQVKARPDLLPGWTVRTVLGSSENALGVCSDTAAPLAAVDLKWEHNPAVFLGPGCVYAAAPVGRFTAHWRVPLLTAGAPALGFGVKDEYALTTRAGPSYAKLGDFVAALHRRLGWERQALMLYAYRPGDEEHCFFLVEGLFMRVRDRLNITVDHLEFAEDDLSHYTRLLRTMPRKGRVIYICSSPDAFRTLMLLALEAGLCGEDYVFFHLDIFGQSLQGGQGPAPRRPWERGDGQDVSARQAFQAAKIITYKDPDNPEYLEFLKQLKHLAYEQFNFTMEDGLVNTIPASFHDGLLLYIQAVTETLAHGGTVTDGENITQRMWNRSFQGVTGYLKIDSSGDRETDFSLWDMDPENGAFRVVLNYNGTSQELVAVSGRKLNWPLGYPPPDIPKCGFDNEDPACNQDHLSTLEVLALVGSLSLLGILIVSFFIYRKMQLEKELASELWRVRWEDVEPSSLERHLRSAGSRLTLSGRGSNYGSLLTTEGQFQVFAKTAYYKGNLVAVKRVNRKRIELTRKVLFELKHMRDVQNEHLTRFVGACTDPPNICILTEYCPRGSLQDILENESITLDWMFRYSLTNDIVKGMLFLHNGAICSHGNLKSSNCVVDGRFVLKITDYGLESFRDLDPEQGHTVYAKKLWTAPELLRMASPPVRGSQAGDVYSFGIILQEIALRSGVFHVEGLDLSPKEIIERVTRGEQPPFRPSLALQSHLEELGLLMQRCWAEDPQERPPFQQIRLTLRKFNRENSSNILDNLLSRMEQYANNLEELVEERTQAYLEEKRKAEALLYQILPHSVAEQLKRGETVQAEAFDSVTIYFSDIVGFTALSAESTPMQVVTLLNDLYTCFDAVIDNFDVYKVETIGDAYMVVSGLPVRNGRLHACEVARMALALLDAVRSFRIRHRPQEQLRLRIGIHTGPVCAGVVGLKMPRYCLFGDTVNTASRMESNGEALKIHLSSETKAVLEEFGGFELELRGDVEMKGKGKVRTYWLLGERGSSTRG
T1 sequence (P16860 103-134 partner limits assumed): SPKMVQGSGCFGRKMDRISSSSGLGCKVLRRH
Method: (§1) QBIHEK293A cells stably transfected with human (h) natriuretic peptide receptor A (hNPR-A) and hNPR-B were made as described in Bach et al., Naunyn Schmiedebergs Arch. Pharmacol. 2014; 387:5-14. Cells were grown in DMEM (Dulbecco's Modified Eagle's Medium, Gibco®, ThermoFischer Scientific) supplemented with 10% Fetal Bovine Serum (FBS), 100 U/ml penicillin, 0.1 mg/ml streptomycin, and 0.4 mg/ml G418 (geneticin) as selection antibiotic.
(§2) The AlphaScreen assay for cGMP (Perkin Elmer) was performed as described in Bach et al. (see above). NPR-A and NPR-B expressing HEK293 cells were split the day before the experiment and harvested using an EDTA solution (Versene, Invitrogen, ThermoFischer Scientific). A final concentration of 6000 cells/well was re-suspended in stimulation buffer (5 mM HEPES in HBSS at pH 7.4, 0.1% BSA) with IBMX (0.7 mM final). Compounds were dissolved in stimulation buffer and added to wells in increasing concentrations. Cells were incubated with the indicated compounds 20 minutes before addition of agonists (human BNP, human CNP or human proBNP) in various concentrations. Cells were stimulated for 20 minutes with agonist before the reactions were stopped (i.e. cells lysed) by adding the AlphaScreen Acceptor bead mix (Acceptor beads-anti-cGMP antibody and 0.5% Tween-20 in 5 mM HEPES buffer at pH 7.4). After 1 hour incubation, the Donor bead mix (Donor beads, biotinylated cGMP, 0.5% Tween-20 in 5 mM HEPES buffer at pH 7.4) was added (40 μl total volume) and incubation continued for 2 hours. The luminescence signals were analyzed quantitatively by reading of the plates on the EnVision® Multilabel Plate Reader (Perkin Elmer) using AlphaScreen emission 570 nm filter.

HeLa cells = assay: MTT assay (cytotoxicity); assay type: cell-based; details: 24 and 48 h, compared with compounds 3 and 11
Method: Cells were incubated for 24 and 48 h with increasing concentrations of the indicated compound. The data represent formazan formation (absorbance) as a percentage of the negative control (1% DMSO).
The MTT (3-(4,5-dimethylthiazol-2-yl)-2,5-diphenyltetrazolium bromide) tetrazolium reduction assay was used to measure cytotoxicity of the compounds in vitro. Viable cells with active metabolism convert MTT into a purple colored formazan product with an absorbance maximum near 570 nm. HeLa cells were plated in 96-well plates in culture medium (DMEM (Dulbecco's Modified Eagle's Medium, Gibco®, ThermoFischer Scientific) supplemented with 10% Fetal Bovine Serum (FBS), 100 U/ml penicillin, 0.1 mg/ml streptomycin) the day before experiments. Cells were incubated for 24 or 48 h at 37° C. with increasing concentrations of each compound (in 1% DMSO). 1% DMSO and 20 mM H2O2 in culture medium were used as negative and positive control, respectively. MTT solution at a final concentration of 0.45 mg/ml was added to the wells and cells incubated for 1 to 4 hours at 37° C. Solubilization solution (40% (vol/vol) dimethylformamide (DMF), 2% (vol/vol) glacial acetic acid and 16% (wt/vol) sodium dodecyl sulfate (SDS)) was added to each well to dissolve formazan crystals. Absorbance was measured at 570 nm.

[2] = biological target: T2, human (h) natriuretic peptide receptor A (hNPR-A) (Homo sapiens, UniProt P16066); assay: AlphaScreen assay for cGMP: proBNP-mediated NPR-A activity; assay type: cell-based; details: conc. response of compound + 2 nM proBNP
T2 construct: expressed in transfected cells
T2 sequence (P16066 33-1061): T1 sequence (P16066 33-1061)
T2 sequence (P16860 27-134 partner): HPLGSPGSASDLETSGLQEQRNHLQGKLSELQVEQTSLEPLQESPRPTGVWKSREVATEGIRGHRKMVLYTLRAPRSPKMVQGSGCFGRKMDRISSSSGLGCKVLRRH
Method: as §1
as §2, with “Cells were stimulated for 20 minutes with agonist before the reactions were stopped (i.e. cells lysed) by adding the AlphaScreen Acceptor bead mix (Acceptor beads-anti-cGMP antibody and 0.5% Tween-20 in 5 mM HEPES buffer at pH 7.4). After 1 hour incubation, the Donor bead mix (Donor beads, biotinylated cGMP, 0.5% Tween-20 in 5 mM HEPES buffer at pH 7.4) was added (40 μl total volume) and incubation continued for 2 hours.” left out

NPR-A = biological target: T3, NPR-A (Homo sapiens, UniProt P16066); assay: Whole-cell binding assays with 125I-ANP in intact NPR-A expressing HEK293 cells
T3 construct: expressed in transfected cells; host or cells: HEK293 cells expressing NPR-A
T3 sequence (P16066 33-1061): T1 sequence (P16066 33-1061)
Method: as §1
Binding assays were carried out in intact NPR-A expressing HEK293 cells as described in Dickey et al., J Biol Chem. 2009; 284: 19196-202.

Row | Structure (SMILES) | EC50 [1] [µM] | Emax [1] [%] | further results
1 | O=C(Cn1ncc(Br)c(Br)c1=O)c1ccc(Cl)cc1 [Compound 10] | 0.0794 | 37 | –
2 | O=C(Cn1ncc(Cl)c(Cl)c1=O)c1ccc(Cl)s1 [Compound 7] | 0.251 | 33.4 | –
3 | O=C(Cn1ncc(Cl)c(Cl)c1=O)NCCc1c(Cl)cccc1Cl [Compound 17, 2-(4,5-dichloro-6-oxopyridazin-1(6H)-yl)-N-(2,6-dichlorophenethyl)acetamide] | 0.794 | 39.4 | –
4 | Cc1cc(Cl)ccc1C(=O)Cn1ncc(Cl)c(Cl)c1=O [Compound 13, 4,5-dichloro-2-[2-(4-chloro-2-methyl-phenyl)-2-oxo-ethyl]pyridazin-3-one] | 0.1 | 41 | –
5 | COc1ccc(C(=O)Cn2ncc(Cl)c(Cl)c2=O)cc1 [Compound 5, 4,5-dichloro-2-(2-(4-methoxyphenyl)-2-oxoethyl) pyridazin-3(2H)-one] | 3.98 | 38.6 | –
6 | O=C(Cn1ncc(Cl)cc1=O)c1ccc(Cl)cc1 [Compound 4, 5-chloro-2-(2-(4-chlorophenyl)-2-oxoethyl)pyridazin-3(2H)-one] | 5.01 | 35.2 | –
7 | O=C(Cn1ncc(Cl)cc1=O)c1ccc(Cl)s1 [Compound 8, 5-chloro-2-(2-(5-chlorothiophen-2-yl)-2-oxoethyl) pyridazin-3(2H)-one] | 1.58 | 27 | –
8 | O=C(Cn1ncc(Cl)c(Cl)c1=O)C12CC3CC(CC(C3)C1)C2 [Compound 1] | 2.51 | 53.1 | –
9 | O=C(Cn1ncc(Cl)c(Cl)c1=O)c1ccc(Cl)cc1Cl [Compound 11, 4,5-dichloro-2-[2-(2,4-dichlorophenyl)-2-oxo-ethyl]pyridazin-3-one] | 0.2 | 42.5 | –
10 | O=C(Cn1ncc(Cl)c(Cl)c1=O)NCc1cnn(-c2ccccc2)c1 [Compound 20, 2-(4,5-dichloro-6-oxopyridazin-1(6H)-yl)-N-((1-phenyl-1H-pyrazol-4-yl)methyl)acetamide] | 6.31 | 49.4 | –
11 | O=C(Cn1ncc(Cl)c(Cl)c1=O)c1ccc2c(c1)CCCC2 [Compound 9] | 1.26 | 27.7 | –
12 | CC(C)c1ccc(CCNC(=O)Cn2ncc(Cl)c(Cl)c2=O)cc1 [Compound 15, 2-(4,5-dichloro-6-oxopyridazin-1(6H)-yl)-N-(4-isopropylphenethyl)acetamide] | 0.794 | 27.8 | –
13 | Cc1cc(C(=O)Cn2ncc(Cl)c(Cl)c2=O)ccc1Cl [Compound 14, 4,5-dichloro-2-[2-(4-chloro-3-methyl-phenyl)-2-oxo-ethyl]pyridazin-3-one] | 2.51 | 45.4 | –
14 | O=C(Cn1ncc(Cl)c(Cl)c1=O)NCCc1cnn(-c2ccccc2)c1 [Compound 16, 2-(4,5-dichloro-6-oxopyridazin-1(6H)-yl)-N-(2-(1-phenyl-1H-pyrazol-4-yl)ethyl)acetamide] | 0.794 | 41 | –
15 | O=C(Cn1ncc(Cl)c(Cl)c1=O)c1ccc(Cl)c(F)c1 [Compound 12, 4,5-dichloro-2-[2-(4-chloro-3-fluoro-phenyl)-2-oxo-ethyl]pyridazin-3-one] | 0.398 | 44.3 | –
16 | N#Cc1ccc(C(=O)Cn2ncc(Cl)c(Cl)c2=O)cc1 [Compound 6, 4-(2-(4,5-dichloro-6-oxopyridazin-1(6H)-yl)acetyl) benzonitrile] | 2.51 | 44.1 | –
17 | O=C(Cn1nccc(Cl)c1=O)c1ccc(Cl)cc1 [Compound 3, 4-chloro-2-(2-(4-chlorophenyl)-2-oxoethyl)pyridazin-3(2H)-one] | 12.6 | 48.6 | –
18 | O=C(Cn1ncc(Cl)c(Cl)c1=O)Nc1cnn(-c2ccccc2)c1 [Compound 19, 2-(4,5-dichloro-6-oxopyridazin-1(6H)-yl)-N-(1-phenyl-1H-pyrazol-4-yl)acetamide] | 1 | 45.7 | –
19 | O=C(Cn1ncc(Cl)c(Cl)c1=O)NC1CC1c1cnn(-c2ccccc2)c1 (racemic) [Compound 18, rac-2-(4,5-dichloro-6-oxopyridazin-1(6H)-yl)-N-((1R,2S)-2-(1-phenyl-1H-pyrazol-4-yl)cyclopropyl)acetamide] | 0.2 | 30.7 | –
20 | O=C(Cn1ncc(Cl)c(Cl)c1=O)c1ccc(Cl)cc1 [Compound 2] | 0.251 | 45.3 | toxicity in MTT assay relative to corresponding dichloro compounds (HeLa cells): lower toxicity; EC50 ([2]; NPR-A-expressing HEK293 cells, read-out: -LOGEC50 (compound) (converted)): 1 µM; Emax ([2]; percentage of maximum proBNP-mediated cGMP production, read-out: Max response): 99%; Emax (NPR-A; compound + 50 pM 125I-ANP, response of 50 pM 125I-ANP defined as 100%, read-out: Max Response): 173%; EC50 (NPR-A; conc. response compound + 50 pM 125I-ANP, NPR-A HEK293 cells, read-out: -LogEC50 (compound) (converted)): 0.002 µM; Fold change in Bmax (NPR-A; saturation binding, conc. response 125I-ANP + 10 μM compound): 2.3

Reference: patent publication US20240300904A1, “PYRIDAZINONES FOR THE TREATMENT OR PREVENTION OF HYPERTENSION” (UNIVERSITETET I OSLO, priority 2021, published 2024)
